Measured values taken from patent publication US20260166182A1, “CYANINE-BASED FLUOROPHORES” (The General Hospital Corporation, priority 2022, published 2026).

Tests used:
[1] = test system: immune cells from bone marrow and tumor tissues; assay: Flow cytometry analysis of fluorophore-targeted immune cells from bone marrow and tumor; type: in vivo, mouse
Description: Flow cytometry analysis: Bone marrow tissue was mechanically dissociated and digested with collagenase D (175 unit/mL, Roche) and DNase I (100 unit/mL, Roche) followed by EDTA (2 mM, Invitrogen). Erythrocytes were removed using RBC Lysis Buffer (Invitrogen). Tumor tissue was mechanically dissociated and digested with collagenase I (175 unit/mL, Thermo-fisher), Collagenase IV (250 unit/mL, Thermo-fisher, 1700019), and DNase I (100 unit/mL) followed by EDTA ([…]). Immune cells were isolated from cell suspensions of the bone marrow or tumor tissue using Ficoll® Paque Plus (GE Healthcare). Isolated cells were stained with anti-mouse F4/80 (BM8, Biolegend, 123131), anti-mouse Ly-6G (1A8, Biolegend, 127639), anti-mouse Ly-6C(HK1.4, Biolegend, 128011), anti-mouse CD11c (N418, Biolegend, 117313), anti-mouse CD103 (2E7, Biolegend, 121425), anti-mouse I-A/I-E (M5/114.15.2 Biolegend, 107611), anti-mouse/human CD11b (M1/70, Biolegend, 101254) and anti-mouse CD45 antibodies (30-F11, Biolegend, 103105) conjugated to fluorophores. Isolated cells were stained with Live/dead®-Aqua (Life Technologies) to distinguish live cells. Stained cells were fixed using 1% paraformaldehyde prior to analysis. Data acquisition was performed on a Fortessa cytometer (BD) followed by analysis on FlowJo software (Tree Star).

[2] = test system: triple-negative breast adenocarcinoma (E0771 cell); assay: NIR-II fluorescence imaging of subcutaneous breast tumor-bearing C57BL/6 mice; type: in vivo, mouse; conditions: larger-sized breast tumors
Source text: General NIR-II fluorescence imaging: A 640×512-pixel InGaAs camera (Ninox640, Raptor Photonics) and macro zoom lens (0-10×; Navitar Zoom 7000 with SWIR coating) along with 900, 1070, 1100, and 1200 nm long-pass (LP) filters from either Thorlab or Edmund optics were used to collect the NIR-II signal. InGaAs camera played a role as an open-air imaging system along with the support of the FLARE system. An 808 nm fiber-coupled diode laser ([…] at the sample) was used as an excitation source. Data acquisition was done using in-house developed software. The mice fur on the region of interest was shaved prior to imaging using a clipper and removed completely using a depilatory cream. 100 μL of SH1 in 5 w/v % BSA saline ([…]) was injected through the tail vein. Mice were imaged with intact skin using InGaAs camera. At least 3 mice were analyzed for each sample. […]
Statistical analysis: The fluorescence and background intensities of a region of interest over each tissue were quantified using customized imaging software and ImageJ v1.48 (National Institutes of Health, Bethesda, MD). The signal-to-background ratio (SBR) was calculated as SBR=fluorescence/background, where background was the fluorescence intensity of muscle. […] The differences among groups were determined using one-way ANOVA analysis to assess the statistical differences among more than two groups. […]

[3] = Optical study in EtOH, DMSO, HEPES and PBS; type: physicochemical
Description: Optical Study, Photostability, Physicochemical Properties, and DFT Calculation: 1 mM stock solution in DMSO of the synthesized fluorophores was prepared before starting any spectral measurement. Optical properties for the synthesized fluorophores were measured in four different solvents (EtOH, DMSO, HEPES, and PBS). Absorbance spectra were measured in a Varian Cary 50 absorbance spectrophotometer (190-1100 nm). Fluorescence emission and photostability were measured and emission spectra were recorded on a Shimadzu RF-5301PC spectrofluorometer. Physicochemical properties (Log D, molecular mass, TPSA, H bond D/A, polarizability, molecular volume, and rotatable bonds) were predicted by ChemAxon (JChem plugin). Theoretical calculations of frontier molecular orbitals (FMOs) for the optimized structures of selected fluorophores were calculated based on DFT calculations at the B3LYP/6-311G(d,p) level.
In vivo success of a contrast agent can depend on the absorption and emission profiles, molar extinction coefficient, quantum yield, molecular brightness, physicochemical properties, and photochemical stability. Different types of polymethine bridges can have an impact on the structural geometry of the fluorophores and the absorption and emission profiles. Optical properties were measured in polar protic EtOH, polar aprotic DMSO, and two buffer solutions, phosphate-buffered saline (PBS, PH ˜7.4) and 4-(2-hydroxyethyl)-1-piperazine-ethanesulfonic acid (HEPES, PH ˜7.4). Organic solvents such as ethanol (EtOH) and dimethyl sulfoxide (DMSO) are often used in spectroscopic experiments to observe the absorption and emission maximum, whereas buffer solvents PBS and HEPES were used to mimic the biological environment, as these synthesized fluorophores are intended to be used in bioimaging. The absorbance profiles of these fluorophores were recorded at various concentrations (0.8, 1.6, 2.4, 3.2, 4.0 μM) and the absorbance values obtained were plotted against each of the concentrations. […] Fluorophores 18-21 refer to the labels in Example 4 and FIG. 7D.
The molar extinction coefficient is an intrinsic property of any fluorophore and can be important for high image resolution. […] These properties vary with the structure change and are difficult to predict beforehand. The optical properties of the synthesized fluorophores were measured in various media. All measurements were performed in 2 different organic solvents (EtOH and DMSO) and 2 different buffer (HEPES and PBS), and ICG was used as a reference (ΦICG=0.043).

CCCCN1/C(=C/C=C2\CCCC(/C=C/C3=[N+](CCCC)c4ccc(Cl)cc4C3(C)C)=C2Cl)C(C)(C)c2cc(Cl)ccc21 [SH1, 1-butyl-2-((E)-2-((E)-3-(2-((E)-1-butyl-5-chloro-3,3-dimethylindolin-2-ylidene)ethylidene)-2-chlorocyclohex-1-en-1-yl)vinyl)-5-chloro-3,3-dimethyl-3H-indol-1-ium]
targeted tumor-associated immune cells ([1]; CD11b+ DCs): 45.4%
targeted tumor-associated immune cells ([1]; CD103+ DCs): 23.8%
targeted tumor-associated immune cells ([1]; Ly6C^high monocyte): 48.6%
targeted tumor-associated immune cells ([1]; Ly6C^low monocyte): 43.1%
targeted tumor-associated immune cells ([1]; Macrophage): 45.7%
cells identified as targeted TAICs in the tumor region ([1]; tumor): macrophages, Ly6C^low monocytes, and dendritic cells
TBR [2]: 17.6
molar extinction coefficient ([3]; DMSO): 203,000 cm^−1 M^−1
molar extinction coefficient ([3]; EtOH): 270,000 cm^−1 M^−1
Stokes shift ([3]; HEPES): 140 nm
absorbance maximum ([3]; HEPES): 661 nm
emission wavelength ([3]; HEPES): 802 nm
molar extinction coefficient ([3]; HEPES): 44,000 cm^−1 M^−1
molar extinction coefficient ([3]; PBS): 41,000 cm^−1 M^−1
